Data as given in patent publication US20150132404A1, “Equine feed for the reduction of ulcers in performance horses” (priority 2013, published 2015).

System: horses
Test: Observation of horses fed the feed supplement mixture (testing of the product)
Format: in vivo, horse
Source text: A dry horse feed supplement for the prevention and treatment of ulcers in horses, especially those involved in performance activities, provides a feed supplement mixture comprising a quantity of forage or filler product; a quantity of grain product, a quantity of protein product, a quantity of roughage product, essential vitamins and trace minerals, a yeast product, fat, molasses, a measured quantity of thiamine (Vitamin B1) and a measured quantity of sodium bicarbonate. The feed supplement mixture is fed to a horse based upon the total weight of the horse, in an amount between 0.50-1.50% of the body weight, depending upon the level of work and activity stress of the horse.
The feed composition ingredients, delivered in the parameters set above with regard to content quantity by percentage includes the ingredients list, in order of most ingredient quantity to least ingredients quantity, provides the feed containing no less than 14% crude protein, 6.5% crude fat, a no more than 22% crude fiber, no less than 0.6% and no more than 1% calcium, no less than 0.3% phosphorus, as well as quantities of zinc, copper, selenium, Vitamin A and Vitamin E. There are special blends suited for older performance horses and other blends for various younger performance horses. […]

| SMILES | pH level in the digestive tract (sodium bicarbonate at the recommended levels in the feed) | effect on demeanor / stress level of the horse (fed in the feed supplement mixture at 0.5-1.5% of body weight) |
| --- | --- | --- |
| O=C([O-])O.[Na+] [sodium bicarbonate] | acts as a buffer and maintains an optimal ph level in the digestive tract | – |
| Cc1ncc(C[n+]2csc(CCO)c2C)c(N)n1 [thiamine] | – | calming effect on horses |
